Data taken from patent publication US20120115877A1, “Facially Amphiphilic Compounds, Compositions, And Uses Thereof In Treating Cancer” (POLYMEDIX, INC., priority 2010, published 2012).

What was measured:
Assay type in all cases: cell-based, human
[1] = tested on: IGROV1; assay: NCI-60 screen, Ovarian Cancer; settings: 10 μM
Method: (§1) Several compounds were tested at single concentrations (10 μM) against 59 different human tumor cell lines, representing leukemia, melanoma and cancers of the lung, colon, brain, ovary, breast, prostate, and kidney (see, Table 3). The human tumor cell lines of the cancer screening panel were grown in RPMI 1640 medium containing 5% fetal bovine serum and 2 mM L-glutamine. For a typical screening experiment, cells were inoculated into 96 well microtiter plates in 100 μL at plating densities ranging from 5,000 to 40,000 cells/well depending on the doubling time of individual cell lines. After cell inoculation, the microtiter plates were incubated at 37° C., 5% CO2, 95% air and 100% relative humidity for 24 hours prior to addition of the compounds.
(§2) After 24 hours, two plates of each cell line were fixed in situ with TCA, to represent a measurement of the cell population for each cell line at the time of drug addition (Tz). Compounds were solubilized in dimethyl sulfoxide at 400-fold the desired final maximum test concentration and stored frozen prior to use. At the time of drug addition, an aliquot of frozen concentrate was thawed and diluted to twice the desired final maximum test concentration with complete medium containing 50 μg/ml gentamicin. Additional four, 10-fold or ½ log serial dilutions were made to provide a total of five compound concentrations plus control. Aliquots of 100 μl of these different drug dilutions were added to the appropriate microtiter wells already containing 100 μl of medium, resulting in the required final compound concentrations.
(§3) Following drug addition, the plates were incubated for an additional 48 hours at 37° C., 5% CO2, 95% air, and 100% relative humidity. For adherent cells, the assay was terminated by the addition of cold TCA. Cells were fixed in situ by the gentle addition of 50 μl of cold 50% (w/v) TCA (final concentration, 10% TCA) and incubated for 60 minutes at 4° C. The supernatant was discarded, and the plates were washed five times with tap water and air dried. Sulforhodamine B (SRB) solution (100 μl) at 0.4% (w/v) in 1% acetic acid was added to each well, and plates were incubated for 10 minutes at room temperature. After staining, unbound dye was removed by washing five times with 1% acetic acid and the plates were air dried. Bound stain was subsequently solubilized with 10 mM trizma base, and the absorbance was read on an automated plate reader at a wavelength of 515 nm. For suspension cells, the methodology was the same except that the assay was terminated by fixing settled cells at the bottom of the wells by gently adding 50 μl of 80% TCA (final concentration, 16% TCA). Using the seven absorbance measurements (time zero, (Tz), control growth, (C), and test growth in the presence of drug at the five concentration levels (Ti)), the percentage growth was calculated at each of the compound concentrations levels. Percentage growth inhibition was calculated as:
(§4) [(Ti−Tz)/(C−Tz)]×100 for concentrations for which Ti>/=Tz
(§5) [(Ti−Tz)/Tz]×100 for concentrations for which Ti<Tz.
(§6) Three dose response parameters were calculated for each compound. Growth inhibition of 50% (GI50) was calculated from [(Ti−Tz)/(C−Tz)]×100=50, which is the compound concentration resulting in a 50% reduction in the net protein increase (as measured by SRB staining) in control cells during the compound incubation. The compound concentration resulting in total growth inhibition (TGI) was calculated from Ti=Tz. The LC50 (concentration of compound resulting in a 50% reduction in the measured protein at the end of the compound treatment as compared to that at the beginning) indicating a net loss of cells following treatment was calculated from [(Ti−Tz)/Tz]×100=−50. Values were calculated for each of these three parameters if the level of activity was reached; however, if the effect was not reached or was exceeded, the value for that parameter was expressed as greater or less than the maximum or minimum concentration tested.

[2] = tested on: NCI/ADR-RES; assay: NCI-60 screen, Ovarian Cancer; settings: 10 μM
Method: as §1, §2, §3, §4, §5, §6

[3] = tested on: OVCAR-8; assay: NCI-60 screen, Ovarian Cancer; settings: 10 μM
Method: as §1, §2, §3, §4, §5, §6

[4] = tested on: OVCAR-5; assay: NCI-60 screen, Ovarian Cancer; settings: 10 μM
Method: as §1, §2, §3, §4, §5, §6

[5] = tested on: OVCAR-4; assay: NCI-60 screen, Ovarian Cancer; settings: 10 μM
Method: as §1, §2, §3, §4, §5, §6

[6] = tested on: OVCAR-3; assay: NCI-60 screen, Ovarian Cancer; settings: 10 μM
Method: as §1, §2, §3, §4, §5, §6

[7] = tested on: SK-OV-3; assay: NCI-60 screen, Ovarian Cancer; settings: 10 μM
Method: as §1, §2, §3, §4, §5, §6

[8] = tested on: CCRF-CEM; assay: NCI-60 screen, Leukemia; settings: 10 μM
Method: as §1, §2, §3, §4, §5, §6

[9] = tested on: HL-60(TB); assay: NCI-60 screen, Leukemia; settings: 10 μM
Method: as §1, §2, §3, §4, §5, §6

[10] = tested on: MOLT-4; assay: NCI-60 screen, Leukemia; settings: 10 μM
Method: as §1, §2, §3, §4, §5, §6

[11] = tested on: SR; assay: NCI-60 screen, Leukemia; settings: 10 μM
Method: as §1, §2, §3, §4, §5, §6

[12] = tested on: K-562; assay: NCI-60 screen, Leukemia; settings: 10 μM
Method: as §1, §2, §3, §4, §5, §6

[13] = tested on: SN12C; assay: NCI-60 screen, Renal Cancer; settings: 10 μM
Method: as §1, §2, §3, §4, §5, §6

[14] = tested on: ACHN; assay: NCI-60 screen, Renal Cancer; settings: 10 μM
Method: as §1, §2, §3, §4, §5, §6

[15] = tested on: TK-10; assay: NCI-60 screen, Renal Cancer; settings: 10 μM
Method: as §1, §2, §3, §4, §5, §6

[16] = tested on: CAKI-1; assay: NCI-60 screen, Renal Cancer; settings: 10 μM
Method: as §1, §2, §3, §4, §5, §6

[17] = tested on: RXF 393; assay: NCI-60 screen, Renal Cancer; settings: 10 μM
Method: as §1, §2, §3, §4, §5, §6

[18] = tested on: A498; assay: NCI-60 screen, Renal Cancer; settings: 10 μM
Method: as §1, §2, §3, §4, §5, §6

[19] = tested on: UO-31; assay: NCI-60 screen, Renal Cancer; settings: 10 μM
Method: as §1, §2, §3, §4, §5, §6

[20] = tested on: SNB-19; assay: NCI-60 screen, CNS Cancer; settings: 10 μM
Method: as §1, §2, §3, §4, §5, §6

[21] = tested on: U251; assay: NCI-60 screen, CNS Cancer; settings: 10 μM
Method: as §1, §2, §3, §4, §5, §6

[22] = tested on: BT-549; assay: NCI-60 screen, Breast Cancer; settings: 10 μM
Method: as §1, §2, §3, §4, §5, §6

[23] = tested on: T-47D; assay: NCI-60 screen, Breast Cancer; settings: 10 μM
Method: as §1, §2, §3, §4, §5, §6

[24] = tested on: MDA-MB-468; assay: NCI-60 screen, Breast Cancer; settings: 10 μM
Method: as §1, §2, §3, §4, §5, §6

[25] = tested on: MDA-MB-31/ATCC; assay: NCI-60 screen, Breast Cancer; settings: 10 μM, MDA-MB-231/ATCC
Method: as §1, §2, §3, §4, §5, §6

[26] = tested on: MCF7; assay: NCI-60 screen, Breast Cancer; settings: 10 μM
Method: as §1, §2, §3, §4, §5, §6

With `NCCSc1cc(SCCN)c(C(F)(F)F)cc1NC(=O)c1cc(C(=O)Nc2cc(C(F)(F)F)c(SCCN)cc2SCCN)ncn1` [Compound F] the “Percent Growth” value [1] was 4.7%, the “Percent Growth” value [2] was 54.76% and the “Percent Growth” value [3] was 14.34%. For the same compound, the “Percent Growth” value [4] was 59.37%, the “Percent Growth” value [5] was −1.474% and the “Percent Growth” value [6] was −15.5%. For the same compound, the “Percent Growth” value [7] was 15.33%, the “Percent Growth” value [8] was 99.09% and the “Percent Growth” value [9] was 82.57%. For the same compound, the “Percent Growth” value [10] was 82.85%, the “Percent Growth” value [11] was 51.7% and the “Percent Growth” value [12] was 96.34%. The “Percent Growth” value [13] was 57.46%, the “Percent Growth” value [14] was 20.02% and the “Percent Growth” value [15] was 21.48%. The “Percent Growth” value [16] was 31.42%, the “Percent Growth” value [17] was 47.68% and the “Percent Growth” value [18] was 69.6%. The “Percent Growth” value [19] was 48.74%, the “Percent Growth” value [20] was 49.54% and the “Percent Growth” value [21] was 23.67%. The “Percent Growth” value [22] was 101.8%, the “Percent Growth” value [23] was 34.11% and the “Percent Growth” value [24] was −78.28%. The “Percent Growth” value [25] was 18.87% and the “Percent Growth” value [26] was −59.97%.
